From paper PMC5453931, “Cathelicidin-trypsin inhibitor loop conjugate represents a promising antibiotic candidate with protease stability” (Scientific Reports, 2017)
Where a SMILES comes first, the peptide text is derived from it. Bridges are numbered along the chain shown (N, C = ends).

Legend:
Raw264.7 cells [1] = assay: LPS-induced NO, cytokine and chemokine production (Griess reagent, ELISA); format: cell-based, murine; conditions: LPS 100 ng/mL, peptide 5, 10, 20 μg/mL, 24 h, Fig. 6
Procedure: RAW264.7 cells were cultured in DMEM (Gibco, Gaithersburg, USA), containing 10% fetal bovine serum, 100 U/mL streptomycin and 100 U/mL penicillin at 37 °C with 5% CO2, and plated in 24-well plate (1 × 10^6 cells/well). After adhesion, the cells were treated with LPS (100 ng/mL, from E. coli 055:B5, Sigma-Aldrich) in the absence or presence (5, 10, 20 μg/mL) of peptides for 24 h in the same condition. Untreated cells and LPS alone treated cells served as control. The NO was determined using Griess reagent (Beyotime, Jiangsu, China) according to the manufacturer’s protocol. ELISA kits (Joyee, shanghai, china) were used to detect the levels of pro-inflammatory cytokines and chemokines in RAW264.7 cell culture supernatant, including TNF-α, IL-6, IL-1β and MCP-1.

trypsin = assay: Protease stability, RP-HPLC analysis of degradation; format: in vitro ADME
Procedure: To further examine the stability of TIH3F incubated with enzymes (trypsin and protease K) over time, the LC analysis of peptide degradation over a series of time spans (0, 6, 12, 24 h) was performed. TIH3F and protease solution were prepared in 0.1 M NH4HCO3 buffer (pH 8.2) to final molar ratio of 300:1, and incubated at 37 °C for 6, 12, and 24 h, respectively. Then 150 μL aliquots were taken at given time intervals, diluted with 150 μL of water/acetonitrile (60/40 v/v) containing 2% TFA, and analyzed by RP-HPLC (Thermo Scientific Syncronis C18 column, 250 mm × 4.6 mm, 5 μm), eluted with acetonitrile/water (containing 0.1% TFA) mixture of linear gradient concentration.

trypsin or proteinase K = conditions: peptide:protease 300/1 mol/mol, 30 min, 37 °C, then 1 × MIC 2 h with E. coli, S. aureus, C. albicans; colony counting; Fig. 3E
E. coli 08040726 = assay: Bacterial killing kinetic assay, colony counting; format: cell-based
Procedure: The bacterial killing kinetics of the hybrid peptides against E. coli 08040726 was determined by counting the changes in the viable bacterial clones after peptide treatment. The experiment was carried out according to the method described previously with minor modifications. Fresh colonies of the bacteria were incubated in MH broth at 37 °C for 12 h and diluted to 10^6 CFU/in fresh MH broth. The hybrid peptide was added to the bacterial suspension with a final concentration of 1x and 5x corresponding MICs, and incubated at 37 °C for 0, 10, 20, 30, 45, 60, 90, 120, and 180 mins. At each time point, aliquots (50 μL) were removed and diluted with fresh MH broth for 1000 times. […] of the dilutions were coated on MH agar plates, incubated overnight at 37 °C, and the viable colonies were counted. Ampicillin was used as positive control and sterile deionized water was used as negative control.

E. coli = assay: pH stability of antimicrobial activity; format: physicochemical; conditions: HCl or NaOH solution, 2 mg/mL, 37 °C, 24 h, then 1 × MIC for 2 h, CFU; Fig. 3C
Procedure: Peptide was dissolved in HCl solution or NaOH solution to a final concentration of 2 mg/mL with pH value ranging from 1.0 to 11.0, and incubated at 37 °C for 24 h[64]. […] The diluted aliquots were seeded at MH agar plates and the CFU were scored after 24 h incubation at 37 °C. The number of CFU grown out of MH broth without peptide was served as control.

Raw264.7 cells [2] = assay: LPS-induced iNOS, cytokine and chemokine transcription (q-PCR); format: cell-based, Murine; conditions: LPS 100 ng/mL, 6 h, q-PCR normalized to GAPDH; Fig. 6
Procedure: Murine macrophage Raw264.7 cells (3 × 10^5/well) were treated with series concentrations of hybrid peptides and LPS (100 ng/mL) for 6 h. Total RNA was isolated using RNAiso Plus kit (Takara) and synthesized into cDNA with PrimeScript Reverse Transcriptase (Takara). The cDNA was assessed by q-PCR using SYBR green master mix kit (Takara) on a Realplex Mastercycler (Eppendorf, Germany). Gene expression was calculated after being normalized to those of GAPDH levels by Δ Δ Ct method27. The accuracy of the amplification reactions was achieved by melt curve analysis.

E. coli ATCC25922 = assay: Thermal stability of antimicrobial activity; format: physicochemical; conditions: 2 mg/mL in water, up to 96 h, E. coli ATCC25922, 1 × MIC, Fig. 3D
Procedure: Thermal stability of Hc-3 and hybrid peptides was examined according to the method described in our previous work[31]. Peptide was dissolved in sterile deionized water to a final concentration of 2 mg/mL, and incubated at 37 °C for 0–96 h. At each time point, the bacteria colonies of E. coli ATCC25922 survived 1 × MIC were measured.

[3] = test system: established C. albicans biofilm; assay: Biofilm disruption assay, established biofilm (XTT, PI/SYBR Green I); format: cell-based
Procedure: TIH3F that has the best antifungal activity among the four peptides was chosen to examine the effect on the C. albicans biofilm formation and the established biofilm using previously described method with minor modifications. In the biofilm inhibition assay, after the incubation at 35 °C, C. Albicans was diluted to 1 × 10^6 CFU/mL in RPMI-1640 medium. Then 2 mL culture was added to each well of 6-well plates with coverslips at the bottom, and incubated at 35 °C in a humid chamber for 3 h. Non-adherent cells were then washed away by PBS, and series concentrations of TIH3F (0, 1, 2, 4 μg/mL) were added into the plate, with amphotericin B as control. The formation of the biofilm was determined by the XTT Cell Proliferation and Cytotoxicity Kit (KeyGEN BioTECH, Nanjing, China) after 36-h incubation. In the biofilm disruption assay, the biofilm was preformed as described above but with a longer incubation time up to 72 h. Then TIH3F and amphotericin B of series concentrations (0, 2.5, 5, 10, 25, 50 μg/mL) was added after non-adherent cells were washed out. The measurement of remaining biofilm was then determined. In order to further confirm the antifungal effect of TIH3F against C. albicans encased in biofilms, the established biofilm was treated with TIH3F (0, 5, 50 μg/mL), washed three times with PBS, and finally stained with 1 mL 1000-fold diluted PI/SYBR Green I at 30 °C in the dark for 20 min. After washing with PBS, the plate was immediately photographed with fluorescence microscope.

CC[C@H](C)[C@@H]1NC(=O)[C@H](CO)NC(=O)[C@H](CCCCN)NC(=O)[C@H]([C@@H](C)O)NC(=O)[C@H](Cc2c[nH]c3ccccc23)NC(=O)[C@@H](N)CSSC[C@@H](C(=O)N[C@@H](CCCCN)C(=O)N[C@@H](Cc2ccccc2)C(=O)N[C@@H](Cc2ccccc2)C(=O)N[C@@H](CCCCN)C(=O)N[C@@H](CCCNC(=N)N)C(=O)N[C@@H](Cc2ccccc2)C(=O)N[C@@H](Cc2ccccc2)C(=O)N[C@@H](CCCCN)C(=O)N[C@@H](CO)C(=O)N[C@@H](Cc2ccccc2)C(=O)N[C@@H](CCCNC(=N)N)C(=O)N[C@@H](CCCNC(=N)N)C(=O)N[C@@H](C)C(=O)N[C@@H](Cc2ccccc2)C(=O)N[C@@H](CCCCN)C(=O)N[C@@H](CCCCN)C(=O)N[C@@H](Cc2ccccc2)C(N)=O)NC(=O)[C@@H]2CCCN2C(=O)[C@H](CCCCN)NC(=O)[C@@H]2CCCN2C(=O)[C@@H]2CCCN2C1=O [TIH3F] (H-CWTKSIPPKPCKFFKRFFKSFRRAFKKF-NH2; disulfide 1-11)
LPS-induced production of NO, TNF-α, IL-6, IL-1β, MCP-1 (Raw264.7 cells [1]): strongest anti-inflammation effect | RP-HPLC absorbance of the peptide before trypsin incubation (trypsin; pure peptide, 0 h, C18 RP-HPLC, Fig. 4E): 600 mAU | degradation by trypsin (trypsin; trypsin, 300:1, 0.1 M NH4HCO3 pH 8.2, 37 °C, 6 h, RP-HPLC, Fig. 4): a little degradation | intact peptide remaining after trypsin incubation (trypsin; trypsin, 300:1, 0.1 M NH4HCO3 pH 8.2, 37 °C, up to 24 hours, RP-HPLC, Fig. 4): remained half | RP-HPLC absorbance of the peptide after trypsin incubation (trypsin; trypsin, peptide:protease 300:1, 0.1 M NH4HCO3 pH 8.2, 37 °C, 6 h, C18 RP-HPLC, Fig. 4F): 500 mAU | antimicrobial activity after treatment with trypsin or proteinase K (trypsin or proteinase K): negligible antimicrobial activity decrease | time of killing toward E. coli (E. coli 08040726; 1xMIC): ≤ 2 h | time of killing toward E. coli (E. coli 08040726; 5xMIC): ≤ 0.5 h | antimicrobial activity against E. coli after incubation at pH 1.0–11.0 (E. coli): unaffected | LPS-induced mRNA of iNOS, TNF-α, IL-1β, IL-6, MCP-1 (Raw264.7 cells [2]): strongest inhibitory effect | antimicrobial activity after incubation at 37 °C (E. coli ATCC25922): maintained its potent antimicrobial activity | damage of established C. albicans biofilm ([3]; 5 μg/mL, biofilm preformed 72 h, XTT metabolic activity, Fig. 2B): 50% | killing of C. albicans in preformed biofilm ([3]; 50 μg/mL, PI/SYBR Green I staining, fluorescence microscopy, Fig. 2C): destroy all of the cell membranes
